The assay deals with HCT116. The note with it: 72 h. The procedure, abridged:
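Luminescence was read with CellTiter-Glo in HCT116 cells seeded at 250 per well in 1536-well plates. Signals were scaled between vehicle at 0% and positive control at -100%, then pattern-corrected. IC50 and maximal efficacy were obtained by fitting a four-parameter Hill equation.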

Counter-ions that a name gives are not always drawn.

Consider `CN1CC(=O)N2[C@H](c3ccc4c(c3)OCO4)c3[nH]c4ccccc4c3C[C@@H]2C1=O` [Tadalafil], for which the IC50 cell viability (ICRF193 0 nM) was above 45.8 µM and the IC50 cell viability (ICRF193 200 nM) was above 45.8 µM.
Turning to `CCN(CC)C(=S)SSC(=S)N(CC)CC` [Disulfiram], the IC50 cell viability was above 45.8 µM (ICRF193 0 nM) and above 45.8 µM (ICRF193 200 nM).
For the compound `CCCCC(CC)COC(=O)C=Cc1ccc(OC)cc1` (centres undefined) [Octinoxate], the IC50 cell viability is above 45.8 µM (ICRF193 0 nM) and above 45.8 µM (ICRF193 200 nM).
For `CC(=O)NCc1c(I)c(NC(C)=O)c(I)c(C(=O)O)c1I` [Iodamide], the IC50 cell viability was above 45.8 µM (ICRF193 0 nM) and above 45.8 µM (ICRF193 200 nM).
For the compound `O=C(O)CCCCC(=O)O` [Hexanedioic acid], the IC50 cell viability was above 45.8 µM (ICRF193 0 nM) and above 45.8 µM (ICRF193 200 nM).
Turning to `CS(=O)(=O)c1ccc([C@@H](O)[C@@H](CF)NC(=O)C(Cl)Cl)cc1` [Florfenicol], the IC50 cell viability was above 45.8 µM (ICRF193 0 nM) and above 45.8 µM (ICRF193 200 nM).
In the case of `NC(=O)c1cc[n+](CC2=C(C(=O)[O-])N3C(=O)[C@@H](NC(=O)Cc4cccs4)[C@H]3SC2)cc1` [Cefalonium], the IC50 cell viability is above 45.8 µM (ICRF193 0 nM) and above 45.8 µM (ICRF193 200 nM).
In the case of `CCCC[C@@H](O)/C=C(C)/C=C/C=C/C(=O)N1CCCC1=O` [Variotin], the IC50 cell viability by setting is: (ICRF193 0 nM) above 45.8 µM; (ICRF193 200 nM) above 45.8 µM.
Consider `CC(C)CCCC(C)NC(C)C` (centres undefined) [IPROHEPTINE], for which the IC50 cell viability was above 45.8 µM (ICRF193 0 nM) and above 45.8 µM (ICRF193 200 nM).
For the compound `Cc1ccccc1C(OCCN(C)C)c1ccccc1` (centres undefined) [Orphenadrine dihydrogen citrate], the IC50 cell viability runs as follows: (ICRF193 0 nM) above 45.8 µM; (ICRF193 200 nM) above 45.8 µM.
Turning to `CC#C[C@]1(O)CC[C@H]2[C@@H]3C[C@H](C)C4=CC(=O)CC[C@]4(C)[C@H]3CC[C@@]21C` [Dimethisteron], the IC50 cell viability was above 45.8 µM (ICRF193 0 nM) and above 45.8 µM (ICRF193 200 nM).
As to `CCC(=O)OCC(=O)[C@@]1(OC(=O)CC)[C@@H](C)C[C@H]2[C@@H]3CCC4=CC(=O)C=C[C@]4(C)[C@@]3(F)[C@@H](O)C[C@@]21C` [BETAMETHASONE 17,21-DIPROPIONATE], the IC50 cell viability is, setting by setting: (ICRF193 0 nM) above 45.8 µM; (ICRF193 200 nM) above 45.8 µM.
On to `COC(=O)CCC[N+](C)(C)C` [Carpronium chloride], for which the IC50 cell viability runs as follows: (ICRF193 0 nM) above 45.8 µM; (ICRF193 200 nM) above 45.8 µM.
In the case of `C[C@@H]1CN(c2c(F)c(F)c3c(=O)c(C(=O)O)cn(C4CC4)c3c2F)C[C@H](C)N1` [Orbifloxacin], the IC50 cell viability was above 45.8 µM (ICRF193 0 nM) and above 45.8 µM (ICRF193 200 nM).
As for `CCC(=O)c1ccc(O)cc1` [Paroxypropione], the IC50 cell viability was above 45.8 µM (ICRF193 0 nM) and above 45.8 µM (ICRF193 200 nM).
Compound `CC(C)[N+](C)(CCC(C(N)=O)(c1ccccc1)c1ccccc1)C(C)C` [Isopropamide] showed an IC50 cell viability (ICRF193 0 nM) above 45.8 µM and an IC50 cell viability (ICRF193 200 nM) above 45.8 µM.
For `CC(N/C(=N\C#N)Nc1ccncc1)C(C)(C)C` (centres undefined) [PINACIDIL], the IC50 cell viability (ICRF193 0 nM) is above 45.8 µM and the IC50 cell viability (ICRF193 200 nM) is above 45.8 µM.
The compound `CCCCOCCOC(=O)c1cccnc1` [Nicoboxil] came in with an IC50 cell viability (ICRF193 0 nM) above 45.8 µM and an IC50 cell viability (ICRF193 200 nM) above 45.8 µM.
For `CC1(C)O[C@@H]2C[C@H]3[C@@H]4CCC5=CC(=O)C=C[C@]5(C)[C@@]4(F)[C@@H](O)C[C@]3(C)[C@]2(C(=O)CO)O1` [Triamcinolone acetonide], the IC50 cell viability (ICRF193 0 nM) is above 45.8 µM and the IC50 cell viability (ICRF193 200 nM) is above 45.8 µM.
On to `CNC(=O)Oc1cccc2ccccc12` [Carbaryl], for which the IC50 cell viability by setting is: (ICRF193 0 nM) above 45.8 µM; (ICRF193 200 nM) above 45.8 µM.
`CNC(=O)Oc1ccc2c(c1)[C@]1(C)CCN(C)[C@@H]1N2C` [Physostigmine]: the IC50 cell viability is, setting by setting: (ICRF193 0 nM) above 45.8 µM; (ICRF193 200 nM) above 45.8 µM.
The compound `CC(=O)Nc1ccc(C(=O)O)cc1` [4-Acetamidobenzoic acid] registered an IC50 cell viability (ICRF193 0 nM) above 45.8 µM and an IC50 cell viability (ICRF193 200 nM) above 45.8 µM.
As to `CO/N=C(\C(=O)N[C@@H]1C(=O)N2C(C(=O)OCOC(=O)C(C)(C)C)=C(/C=C\c3scnc3C)CS[C@H]12)c1csc(N)n1` [Cefditoren (Pivoxil)], the IC50 cell viability by setting is: (ICRF193 0 nM) above 45.8 µM; (ICRF193 200 nM) above 45.8 µM.
As for `Clc1ccc2nsnc2c1NC1=NCCN1` [Tizanidine hydrochloride], the IC50 cell viability by setting is: (ICRF193 0 nM) above 45.8 µM; (ICRF193 200 nM) above 45.8 µM.
Regarding `COC(=O)c1ccc(O)cc1` [Methylparaben], the IC50 cell viability is, setting by setting: (ICRF193 0 nM) above 45.8 µM; (ICRF193 200 nM) above 45.8 µM.
As for `O=C(CCOCCOCCOCCOCCC(=O)Nc1c(I)cc(I)c(C(=O)O)c1I)Nc1c(I)cc(I)c(C(=O)O)c1I` [Iodoxamic Acid], the IC50 cell viability is, setting by setting: (ICRF193 0 nM) above 45.8 µM; (ICRF193 200 nM) above 45.8 µM.
As to `Cc1ccccc1C(=O)Nc1ccc(C(=O)N2CCCC(O)c3cc(Cl)ccc32)c(C)c1` (centres undefined) [Tolvaptan], the IC50 cell viability is, setting by setting: (ICRF193 0 nM) above 45.8 µM; (ICRF193 200 nM) above 45.8 µM.

These data come from the supplement of paper PMC12137928.
